Data reported in patent US20120003270A1, “6-SUBSTITUTED ISOFLAVONOID COMPOUNDS AND USES THEREOF” (priority 2008, published 2012).

What was measured:
[1] = system: low density lipoprotein (LDL); experiment: Cu2+-induced oxidation of LDL (FOX assay); assay type: biochemical; parameters: lipid peroxide formation: unit not given here
Description: Blood was collected by venipuncture and plasma separated by centrifugation. LDL was then isolated from plasma using a 4-step sodium chloride density gradient and ultracentrifuged at 200,000 g for 20 hours at 4° C. The collect LDL was purified by passage through gel filtration PD10 column to remove excess salt and EDTA, and stored in the dark at 4° C. to prevent auto-oxidation and used with two weeks of isolation. The LDL cholesterol content was measure using a standard enzymatic method and protein concentration determined by the Lowry method using BSA as the standard.
On the day of each experiment a 2 mL aliquot of LDL was passed through a second PD10 column and diluted with chelex treated PBS (100 mM) to give a standard protein concentration of 0.1 mg/mL, ie final concentration per reaction. Oxidation reactions were initiated by the addition of freshly prepared Cu^2+ solution, such that the final concentration of CuSO4 was 5 μM. […] The extent of lipoprotein oxidation was determined by measuring the formation of lipid-peroxides on aliquots removed every 30-minute over a 3-hour period. Peroxides were determined at each time point by the ferrous oxidation-xylenol orange (FOX) assay using standard hydrogen peroxide curve (5 to 200 μM). Compound (1) was examined in at least two separate experiments performed on separate days.

[2] = Interaction with Cu(II) (UV/Vis absorption spectra); assay type: physicochemical; details: 25 μM compound + 25 μM CuSO4, 1:1 molar ratio, pH 7.2
Description: The non-specific binding of compound (1) to Cu^++ was also examined in duplicate on different days. A stock solution of test compounds was prepared in DMSO at a concentration of 5 mM. The UV/Vis absorption spectra of was then determined between 200 and 800 nm after dilution of test compounds to 25 μM in phosphate buffer (10 mM, pH 7.2, chelex treated). Interactions of the compounds with Cu(II) were determined by scanning a second overlaying absorption spectrum over 200 to 800 nm, in which 25 μM CuSO4 solution was added to a fresh 25 μM solution of test compounds and mixed for 20 seconds.

[3] = system: IFN-γ and IL-6; experiment: Splenocyte cytokine production (ELISA); assay type: cell-based, mouse; details: 10 μM, 3 day incubation, culture supernatant
Description: Male Skh-1:HR1 (hairless) mice, approximately six weeks old were killed by cervical dislocation. Single cell suspensions were made from the spleen and erythrocytes were lysed in buffer (0.14M NH4Cl, 17 mM Tris, pH 7.2). The remaining splenocytes were cultured in RPMI-1640 (Gibco) supplemented with 10% (v:v) FBS, 200 mM L-glutamine, penicillin/streptomycin and […] 2-mercaptoethanol. Splenocytes were added to quadruplicate wells containing either concanavalin A (ConA, Sigma-Aldrich—0.4 μg/well), LPS (Sigma-Aldrich—1 μg/well) or no mitogen, as well 10 μM of test compound in DMSO. Samples were analysed after a 3 day incubation at 37° C. in 5% CO2 in air. Methylthiazoletetrazolium (MTT) is bioreduced by viable cells into a coloured formazan product that is soluble in DMSO. Thus the quantity of formazan product is directly proportional to the number of living cells in culture, and can be measured using a spectrophotometer at 570 nm. MTT was added to each well, incubated for a further 4 hrs and then colour developed with 0.04N HCl in isopropanol. Culture supernatants were stored after collection at −80° C. and both T and B cells analysed by ELISA (BD Biosciences) for IFN-γ (a Th-1 cytokine) and for T cells alone, IL-6 (a Th-2 cytokine).

[4] = system: PGE2; experiment: PGE2 synthesis in RA-stimulated U937 cells; assay type: cell-based, human; details: A23187 0.5 μM, 30 min
Description: U937 cells were thawed and resuspended in RPMI and 10% FCS at 2×10^5 cells per ml. The cells were incubated in 5% CO2 at 37° C. and expanded in growing culture to at least 6.4×10^7 total cells. The cells were then resuspended in fresh medium and cultured with 5 μM retinoic acid (RA) at 2×10^5 cells per ml for a further 3 days (72 h). RA treated cells were washed 2× in serum-free RPMI and resuspended in serum-free medium at 5×10^6 cells per ml. The cells were aliquotted into Teflon tubes at 1 ml per tube. Working stock solutions of compounds (1) and (3) were prepared at 0.1 mM, 1 mM and 10 mM as described above. For each working dilution, 10 μl was added to 1 ml cells to achieve a final concentration of 0 (DMSO alone), 1, 10, and 100 μM for each test compound. Cells were incubated in triplicate with each concentration of test compound for 15 min at 37° C. After 15 min pre-incubation, each 1 ml tube of cells received 5 μl of a […] solution of the calcium ionophore A23187 (to achieve 0.5 μM A23187). Incubation at 37° C. was continued for a further 30 min. After incubation, supernatants were collected by centrifugation at 2000 rpm for 10 min and stored at −20° C. until required for assay.

[5] = system: aortic ring; experiment: Rat aortic ring assay (contraction to noradrenaline); details: 1 μg/ml, p=0.045, read-out: Inhibition of the contractile response (logEC50) to noradrenaline compared with vehicle alone
Description: Male Sprague-Dawley rats (250±50 g) were euthanased with 80% CO2 and 20% O2. The thoracic aorta was excised and quickly mounted in organ-baths as described (Chin-Dusting et al. 2001). Full concentration-contractile curves were obtained to noradrenaline (0.1 nM-10 mM) with and without test compounds delivered at a concentration of 1 μg/ml. Experiments were repeated in n=5 different rings from 5 different animals. Only one compound at any one concentration was tested on any one ring from any one animal. Sigmoidal dose response curves were fitted for the data and the logEC50 calculated (Prism 4, GraphPad Software). The difference in these values between the presence and absence of test compound was calculated using a two-tailed paired t test. The effects of β-oestrodiol and vehicle alone were examined as a positive and negative control respectively.

Q: For `CN(C)Cc1cc2c(cc1O)OCC(c1ccc(O)cc1)=C2` [Compound (1)], which lipid peroxide formation ([1]; Compound (1) 100 μM + Cu++ 5 μM, no LDL, 0 min) is on record?
A: 10.13 ± 2.82

Q: And the lipid peroxide formation ([1]; Compound (1) 100 μM + Cu++ 5 μM, no LDL, 30 min)?
A: 32.09 ± 11.15

Q: And the lipid peroxide formation ([1]; Compound (1) 100 μM + Cu++ 5 μM, no LDL, 60 min)?
A: 46.21 ± 20.68

Q: What about the lipid peroxide formation ([1]; Compound (1) 100 μM + Cu++ 5 μM, no LDL, 90 min) of the same molecule?
A: 58.19 ± 28.98

Q: What about the lipid peroxide formation ([1]; Compound (1) 100 μM + Cu++ 5 μM, no LDL, 120 min) of the same molecule?
A: 69.46 ± 35.33

Q: And the lipid peroxide formation ([1]; Compound (1) 100 μM + Cu++ 5 μM, no LDL, 180 min)?
A: 76.60 ± 40.17

Q: And the IC50 ([1]; LDL 0.1 mg/mL, CuSO4 5 μM, read-out: IC50, concentration at which 50% of the LDL oxidation was inhibited)?
A: 580 nM

Q: And the lipid peroxide formation ([1]; LDL 0.1 mg/ml + compound (1) 0.1 μM + Cu++ 5 μM, 0 min)?
A: 11.54 ± 1.96

Q: And the lipid peroxide formation ([1]; LDL 0.1 mg/ml + compound (1) 0.1 μM + Cu++ 5 μM, 30 min)?
A: 14.50 ± 0.28

Q: And the lipid peroxide formation ([1]; LDL 0.1 mg/ml + compound (1) 0.1 μM + Cu++ 5 μM, 60 min)?
A: 26.86 ± 0.65

Q: What about the lipid peroxide formation ([1]; LDL 0.1 mg/ml + compound (1) 0.1 μM + Cu++ 5 μM, 90 min) of the same molecule?
A: 89.43 ± 17.03

Q: And the lipid peroxide formation ([1]; LDL 0.1 mg/ml + compound (1) 0.1 μM + Cu++ 5 μM, 120 min)?
A: 161.78 ± 1.44

Q: And the lipid peroxide formation ([1]; LDL 0.1 mg/ml + compound (1) 0.1 μM + Cu++ 5 μM, 180 min)?
A: 193.20 ± 25.05

Q: What about the lipid peroxide formation ([1]; LDL 0.1 mg/ml + compound (1) 1.0 μM + Cu++ 5 μM, 0 min) of the same molecule?
A: 11.31 ± 1.95

Q: And the lipid peroxide formation ([1]; LDL 0.1 mg/ml + compound (1) 1.0 μM + Cu++ 5 μM, 30 min)?
A: 12.83 ± 2.28

Q: And the lipid peroxide formation ([1]; LDL 0.1 mg/ml + compound (1) 1.0 μM + Cu++ 5 μM, 60 min)?
A: 13.11 ± 2.70

Q: And the lipid peroxide formation ([1]; LDL 0.1 mg/ml + compound (1) 1.0 μM + Cu++ 5 μM, 90 min)?
A: 14.78 ± 1.06

Q: And the lipid peroxide formation ([1]; LDL 0.1 mg/ml + compound (1) 1.0 μM + Cu++ 5 μM, 120 min)?
A: 20.39 ± 2.95

Q: What about the lipid peroxide formation ([1]; LDL 0.1 mg/ml + compound (1) 1.0 μM + Cu++ 5 μM, 180 min) of the same molecule?
A: 102.30 ± 37.30

Q: What about the lipid peroxide formation ([1]; LDL 0.1 mg/ml + compound (1) 10 μM + Cu++ 5 μM, 0 min) of the same molecule?
A: 11.54 ± 1.96

Q: What about the lipid peroxide formation ([1]; LDL 0.1 mg/ml + compound (1) 10 μM + Cu++ 5 μM, 30 min) of the same molecule?
A: 16.77 ± 2.55

Q: And the lipid peroxide formation ([1]; LDL 0.1 mg/ml + compound (1) 10 μM + Cu++ 5 μM, 60 min)?
A: 19.56 ± 4.55

Q: And the lipid peroxide formation ([1]; LDL 0.1 mg/ml + compound (1) 10 μM + Cu++ 5 μM, 90 min)?
A: 20.84 ± 5.30

Q: What about the lipid peroxide formation ([1]; LDL 0.1 mg/ml + compound (1) 10 μM + Cu++ 5 μM, 120 min) of the same molecule?
A: 22.80 ± 3.39

Q: What about the lipid peroxide formation ([1]; LDL 0.1 mg/ml + compound (1) 10 μM + Cu++ 5 μM, 180 min) of the same molecule?
A: 20.30 ± 4.97

Q: What about the lipid peroxide formation ([1]; LDL 0.1 mg/ml + compound (1) 100 μM + Cu++ 5 μM, 0 min) of the same molecule?
A: 13.83 ± 1.77

Q: And the lipid peroxide formation ([1]; LDL 0.1 mg/ml + compound (1) 100 μM + Cu++ 5 μM, 30 min)?
A: 29.71 ± 6.85

Q: What about the lipid peroxide formation ([1]; LDL 0.1 mg/ml + compound (1) 100 μM + Cu++ 5 μM, 60 min) of the same molecule?
A: 39.57 ± 10.67

Q: And the lipid peroxide formation ([1]; LDL 0.1 mg/ml + compound (1) 100 μM + Cu++ 5 μM, 90 min)?
A: 78.85 ± 33.54

Q: What about the lipid peroxide formation ([1]; LDL 0.1 mg/ml + compound (1) 100 μM + Cu++ 5 μM, 120 min) of the same molecule?
A: 54.24 ± 9.58

Q: What about the lipid peroxide formation ([1]; LDL 0.1 mg/ml + compound (1) 100 μM + Cu++ 5 μM, 180 min) of the same molecule?
A: 62.50 ± 19.58

Q: And the “Interaction with Cu^2+” value [2]?
A: did not interact with Cu^2+

Q: What about the “Effect on cytokine synthesis (INF-γ, IL-6)” value [3] of the same molecule?
A: concomitant reduction on the synthesis of INF-γ and IL-6

Q: And the “PGE2” value ([4]; 1 μM)?
A: 1.485 ± 0.175 pg

Q: And the “PGE2” value ([4]; 10 μM)?
A: 1.58 ± 0.145 pg

Q: And the “PGE2” value ([4]; 100 μM)?
A: 0.881 ± 0.116 pg

Q: And the inhibition at 1 µg/mL [5]?
A: 23%
